In patent publication US20240208901A1, “Deuterated 3,3'-Diselenodipropionic Acid (DSePA) and Its Use as an Anticancer or Radioprotective Agent” (Secretary, Department of Atomic Energy, priority 2022, published 2024):

Columns and labels:
WI-38 cells = test: MTT assay, toxicity in non-cancerous lung fibroblast WI-38 cells; format: cell-based, human; settings: Homo sapiens, WI-38, WI38 cells, 48 h post treatment, read-out: IC50 for inhibiting the cell proliferation
From the text: Therefore, D-DSePA was compared with un-deuterated DSePA for its anticancer activity in A549, H1975 and H3122 cell lines which are representative of NSCLC. […] The plot of percent (%) cytotoxicity (100-% viability) versus the concentration of DSePA/D-DSePA was used to estimate the half maximum concentration (IC50) of above compounds to inhibit the proliferation of cells. […] Similarly, the toxicity of DSePA/D-DSePA was studied in non-cancerous lung fibroblast cells, WI-38 and WI-26 VA4 in the concentration range of 0.1 to 1000 μM at 48 h post treatment by MTT assay (FIG. 9D and 9E). […] Employing these values, the therapeutic index (IC50 in normal lung cell/IC50 in lung cancer cell) of DSePA and D-DSePA in different pairs of normal versus cancerous cells (viz., A549/WI-38, A549/WI-26 VA4, H1975/WI-38, H1975/WI-26 VA4, H3122/WI-38 and H3122/WI-26 VA4) was calculated (Table-3). […]
(§1) MTT Assay—To evaluate the anti-proliferative effect of D-DScPA and DScPA, Cells (˜5×10^3) suspended in 100 μl of complete culture medium were seeded in each well of 96 well plates. […] The percentage (%) cytotoxicity was calculated from the decrease in absorbance at 570 nm of treated groups as compared to that of control group. […] The therapeutic index was calculated by normalizing the IC50 concentration of D-DSePA/DSePA in non-cancerous cells to that in cancerous cells.

[1] = tested on: lung cancer cell lines (A549, H1975 and H3122) versus normal lung cells (WI-38 and WI-26 VA4); test: Therapeutic index by MTT assay, lung cancer cell lines versus normal lung cells; format: cell-based, human; settings: for Therapeutic Index (IC50 in normal cell / IC50 in cancer cells): 48 h post-treatment
Procedure: Therefore, D-DSePA was compared with un-deuterated DSePA for its anticancer activity in A549, H1975 and H3122 cell lines which are representative of NSCLC. For this, above cells were treated with the varying concentrations (0.1-100 μM) of DSePA/D-DSePA for 48 h and the cell viability was determined by MTT assay (FIG. 9A-C). The plot of percent (%) cytotoxicity (100-% viability) versus the concentration of DSePA/D-DSePA was used to estimate the half maximum concentration (IC50) of above compounds to inhibit the proliferation of cells. […] Similarly, the toxicity of DSePA/D-DSePA was studied in non-cancerous lung fibroblast cells, WI-38 and WI-26 VA4 in the concentration range of 0.1 to 1000 μM at 48 h post treatment by MTT assay (FIG. 9D and 9E). […] Employing these values, the therapeutic index (IC50 in normal lung cell/IC50 in lung cancer cell) of DSePA and D-DSePA in different pairs of normal versus cancerous cells (viz., A549/WI-38, A549/WI-26 VA4, H1975/WI-38, H1975/WI-26 VA4, H3122/WI-38 and H3122/WI-26 VA4) was calculated (Table-3). […] The average therapeutic index of DSePA and D-DSePA estimated from above study was 11.05±1.5 and 78.7±29.2 respectively (FIG. 10).
MTT Assay—To evaluate the anti-proliferative effect of D-DScPA and DScPA, Cells (˜5×10^3) suspended in 100 μl of complete culture medium were seeded in each well of 96 well plates. The cells were allowed to attach and grow for 24 h, treated with desired concentrations of D-DSePA/DScPA dissolved in culture medium for 48 h and then processed for MTT assay as described in literature. The percentage (%) cytotoxicity was calculated from the decrease in absorbance at 570 nm of treated groups as compared to that of control group. The % cytotoxicity was plotted as a function of the concentration of D-DSePA and DSePA and from this curve, the concentration of D-DSePA/DScPA causing 50% toxicity (IC50) was estimated. The therapeutic index was calculated by normalizing the IC50 concentration of D-DSePA/DSePA in non-cancerous cells to that in cancerous cells.

[2] = tested on: human NSCLC cells such as A549, H1975 and H3122; test: MTT assay, human NSCLC cells (summary statement); format: cell-based; settings: read-out: half maximum concentration (IC50) for growth inhibition
From the text: 3,3′-Disclenodipropionic acid-D8 (D-DSePA, chemical structure shown in FIG. 1) was synthesized by reacting freshly prepared sodium selenide (Na2Se2) and 3-bromopropionic acid-D4 in D2O solvent with 42% yield. The synthesized D-DSePA was purified and characterized by NMR spectroscopy and mass spectrometry. The molecular structure of D-DSePA has been established by single-crystal X-ray diffraction analysis. The treatment of D-DSePA and un-deuterated DSePA inhibited the growth of human NSCLC cells such as A549, H1975 and H3122 with half maximum concentration (IC50) in the range of 5-50 μM by MTT assay. […] Finally, at identical treatment concentration, D-DSePA offered better radioprotection to non-cancerous WI38 cells with a dose modification factor (DMF) of 1.16±0.05 as compared to un-deuterated DScPA with DMF of 1.12±0.03.
as §1

Compound: O=C(O)CC[Se][Se]CCC(=O)O [DSePA, 3,3′-diselenodipropionic acid]
- IC50 (WI-38 cells): 171 ± 2.2 µM
- Therapeutic Index (IC50 in normal cell / IC50 in cancer cells) ([1]; A549/WI-26 VA4, MTT assay): 9.9 ± 0.5
- Therapeutic Index (IC50 in normal cell / IC50 in cancer cells) ([1]; A549/WI-38, MTT assay): 11.2 ± 0.6
- Therapeutic Index (IC50 in normal cell / IC50 in cancer cells) ([1]; H1975/WI-26 VA4, MTT assay): 14.2 ± 0.7
- Therapeutic Index (IC50 in normal cell / IC50 in cancer cells) ([1]; H1975/WI-38, MTT assay): 16.1 ± 0.8
- Therapeutic Index (IC50 in normal cell / IC50 in cancer cells) ([1]; H3122/WI-26 VA4, MTT assay): 7.0 ± 0.4
- Therapeutic Index (IC50 in normal cell / IC50 in cancer cells) ([1]; H3122/WI-38, MTT assay): 7.9 ± 0.4
- average therapeutic index ([1]; mean of six normal/cancer cell pairs, mean±SEM (n=6), MTT assay): 11.05±1.5
- IC50 [2]: 5 to 50 µM
